# Patent US11597739B2, “Enhancing CD8+ T cells for adoptive T cell therapy by inhibiting PTPN1 (PTP1B) and PTPN2 (TC-PTP)” (The Royal Institution for the Advancement of …, priority 2017, dated 2023)
# Test system: OVA expressing EG.7 lymphoma target cells
# Assay: Calcein-release cytotoxicity assay of OT-1 CTLs
# Format: cell-based, mouse
# Details: OT-1 CD8 cells activated with inhibitor at 50 μM; 5 hours; every effector to target ratio; versus untreated, K882 or K885
# Method: 9) Cytotoxicity Experiments
# 3 days before the experiment thaw a new vial of EG.7 cells. After 24 h in culture, the cells are resuspended at 5×10^4 and 100 U/ml of IFN-γ is added. The day of the experiment, the EG.7 cells are harvested, washed once with HBSS. The EG.7 cells are resuspended at 10^6/ml in HBSS and 10 μM Calcein-AM added. The cells are incubated at 37° C. for 1 hr in the dark, washed twice with complete RPMI and counted. They are then resuspend at 3×10^5/ml.
# The following wells from a 0.75×10^6/ml suspension of the CD8 (Effector) cells to have different effector to target ratios are prepared in duplicate. Before plating the effector cells, RPMI complete is added, 50 μl to the 5:1 ratio wells and 90 μl to the 1:1 ratio wells. • 75×10^3 (100 μl) 25:1 ratio. • Dilute the suspension 1:2.5 volumes: • 30×10^3 (100 μl) 10:1 ratio. • 15×10^3 (50 μl) 5:1 ratio. • 3×10^3 (10 μl) 1:1 ratio. • Prepare at least 2 wells with 100 μl of RPMI complete.
# 100 μl of EG.7 (Target) cells is added and spin at 400×g for 2 minutes, RT. […]
# For Controls: Background fluorescence (BF): Harvest 100 μl supernatant from control wells. Absolut fluorescence (AF): Add 100 μl of methanol to the control wells harvested for background. […]
# Calculate the specific cell lysis as follows: Specific cell lysis=((Sample−BF)/(AF−BF))×100 10) Flow Cytometry 1. […] Record cell quantity transfers per tube; • b. […]
compound,measurement,value
"CCOC(=O)c1cc2cc(C(F)(F)P(=O)(O)O)c(Br)cc2s1 [Ex. 1, ((6-BROMO-2-(ETHOXYCARBONYL)BENZO[B]THIOPHEN-5-YL)DIFLUOROMETHYL)PHOSPHONATE]",specific cytotoxicity (lysis of EG.7 cells),lysed EG.7 cells with greater efficiency
